# In patent publication US20220315567A1 (priority 2016, published 2022):
# Where “and” joins values, the source holds several entries; their conditions need not be identical. Identical values can stand only once. Counter-ions that a name gives are not always drawn. Like-named read-outs stand apart in the source and are kept apart here.
# Legend:
# human OPRM1 (μ, MOR) [1] = molecular target: T1, human OPRM1 (μ, MOR) (Homo sapiens, UniProt P35372); experiment: cell-based; conditions: for Emax: OPRM1, read-out: β-Arrestin Emax; for EC50: PathHunter human OPRM1 Arrestin CHO-K1 cell line, read-out: β-Arrestin EC50
# T1 construct: host or cells: CHO-K1
# T1 sequence (P35372 whole entry): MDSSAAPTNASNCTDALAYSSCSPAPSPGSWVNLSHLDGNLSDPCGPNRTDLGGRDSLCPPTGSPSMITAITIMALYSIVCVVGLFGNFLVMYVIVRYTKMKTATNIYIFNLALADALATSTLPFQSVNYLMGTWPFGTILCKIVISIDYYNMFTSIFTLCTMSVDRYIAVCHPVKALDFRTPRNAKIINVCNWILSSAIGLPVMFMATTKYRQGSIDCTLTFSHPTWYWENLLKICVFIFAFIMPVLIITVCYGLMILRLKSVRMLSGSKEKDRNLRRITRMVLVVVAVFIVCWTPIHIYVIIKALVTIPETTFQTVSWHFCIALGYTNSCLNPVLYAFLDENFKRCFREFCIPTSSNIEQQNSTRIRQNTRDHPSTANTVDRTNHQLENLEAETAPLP
# Experimental: The Discoverx PathHunter® β-Arrestin assay is used to measure β-arrestin-2 activity. The technology is based on Enzyme Fragment Complementation (EFC) with β-galactosidase (β-Gal) as the reporter. […] EA is fused to Q-arrestin-2, and ED is fused to the C-terminus of the GPCR of interest. When a ligand binds and the GPCR is activated, Q-arrestin-2 is recruited to the receptor resulting in an ED/EA complementation, restoring f-Gal activity, which is measured using chemiluminescence. For this assay, the PathHunter human OPRM1 (μ, MOR) Arrestin CHO-K1 cell line was used.
# human OPRM1 (μ, MOR) [2] = molecular target: T1, human OPRM1 (μ, MOR); experiment: cell-based; conditions: for Emax: OPRM1, read-out: cAMP Emax; for EC50: PathHunter human OPRM1 Arrestin CHO-K1 cell line, read-out: cAMP EC50
# Experimental: G-protein signaling was measured via second messenger cAMP modulation. Detection of cAMP modulation was accomplished in the PathHunter human OPRM1 (μ, MOR) Arrestin CHO-K1 cell line using the Dynamic2 cAMP Kit from Cisbio.
# human OPRM1 (μ, MOR) [3] = molecular target: T1, human OPRM1 (μ, MOR); assay type: cell-based; conditions: for ΔRA of compound: relative activity from EC50 and Emax of β-arrestin vs cAMP, lower RA = more G-protein biased
# Experimental: In certain embodiments, the ability of a compound to activate G-protein or β-arrestin is not an on/off switch for a given pathway, but rather a continuous function. To capture this, each compound is measured for activity in cell assays that are linked to β-arrestin recruitment and G-protein signaling. By comparing the activity between these two measures (accounting for both EC50 and maximal response reached, Emax) a relative activity (RA) value is determined.
# In the case of MOR it is desirable to have high activation of the G-protein pathway while reducing activation of β-arrestin. In the case of the formula above, this means a lower RA.
smiles,measurement,setting,value
"Cc1ccc2c(c1)CN(C(=O)NCC(c1ccsc1)N(C)C)C2 (stereo not shown) (as salt: hydrochloride) [Compound 12a, N-(2-(Dimethylamino)-2-(thiophen-3-yl)ethyl)-5-methylisoindoline-2-carboxamide hydrochloride]",melting point,,200 to 202 °C (dec.)
"CN(C)C(CNC(=O)N1Cc2cc(F)c(F)cc2C1)c1ccsc1 (stereo not shown) (as salt: hydrochloride) [Compound 6a, N-(2-(dimethylamino)-2-(thiophen-3-yl)ethyl)-5,6-difluoroisoindoline-2-carboxamide hydrochloride]",melting point,,210 to 212 °C
"CN(C)C(CNC(=O)NC1CCc2ccccc2C1)c1ccsc1 (stereo not shown) (as salt: hydrochloride) [Compound 10a, 1-(2-(Dimethylamino)-2-(thiophen-3-yl)ethyl)-3-(1,2,3,4-tetrahydronaphthalen-2-yl)urea hydrochloride]",melting point,,151 to 153 °C
"COc1ccc2c(c1)CN(C(=O)NCC(c1ccsc1)N(C)C)C2 (stereo not shown) (as salt: hydrochloride) [Compound 5a, N-(2-(Dimethylamino)-2-(thiophen-3-yl)ethyl)-5-methoxyisoindoline-2-carboxamide hydrochloride]",melting point,,210 to 215 °C (dec.)
"CN(C)C(CNC(=O)N1Cc2ccc(F)cc2C1)c1ccc(F)cc1Cl (stereo not shown) (as salt: hydrochloride) [Compound 17a, N-(2-(2-Chloro-4-fluorophenyl)-2-(dimethylamino)ethyl)-5-fluoroisoindoline-2-carboxamide hydrochloride]",melting point,,173 to 174 °C (dec.)
"CN(C)C(CNC(=O)N(C)C1CCCc2ccccc21)c1ccsc1 (stereo not shown) (as salt: hydrochloride) [Compound 13a, 3-(2-(Dimethylamino)-2-(thiophen-3-yl)ethyl)-1-methyl-1-(1,2,3,4-tetrahydronaphthalen-1-yl)urea hydrochloride]",melting point,,188 to 190 °C
"CN(C)C(CNC(=O)N1Cc2ccc(F)cc2C1)c1ccsc1 (single isomer, unassigned) (as salt: hydrochloride) [2a-ent-(+), (+)—N-(2-(Dimethylamino)-2-(thiophen-3-yl)ethyl)-5-fluoroisoindoline-2-carboxamide hydrochloride]",melting point,,150 to 155 °C (dec.)
"CN(C)C(CNC(=O)N1Cc2ccc(F)cc2C1)c1ccccc1 (stereo not shown) (as salt: hydrochloride) [Compound 20a, N-(2-(Dimethylamino)-2-phenylethyl)-5-fluoroisoindoline-2-carboxamide hydrochloride]",melting point,,148 to 150 °C
"COc1ccc(C(CNC(=O)N2Cc3ccccc3C2)N(C)C)cc1 (stereo not shown) (as salt: hydrochloride) [Compound 15a, N-(2-(Dimethylamino)-2-(4-methoxyphenyl)ethyl)isoindoline-2-carboxamide hydrochloride]",melting point,,149 to 151 °C (dec.)
"CN(C)C(CNC(=O)NC1CCc2ccccc2C1)c1ccccc1 (stereo not shown) (as salt: hydrochloride) [Compound 19a, 1-(2-(Dimethylamino)-2-phenylethyl)-3-(1,2,3,4-tetrahydronaphthalen-2-yl)urea hydrochloride]",melting point,,160 to 161 °C
"CN(C)C(CNC(=O)N1Cc2ccc(O)cc2C1)c1ccc(O)cc1 (stereo not shown) (as salt: hydrobromid) [Compound 24, N-(2-(dimethylamino)-2-(4-hydroxyphenyl)ethyl)-5-hydroxyisoindoline-2-carboxamide hydrobromide]",melting point,,185 °C (dec.)
"CN(C)C(CNC(=O)N1Cc2ccccc2C1)c1ccccc1 (stereo not shown) (as salt: hydrochloride) [Compound 18a, N-(2-(Dimethylamino)-2-phenylethyl)isoindoline-2-carboxamide hydrochloride]",melting point,,107 to 108 °C
"CN(C)C(CNC(=O)N1Cc2ccccc2C1)c1ccc(F)cc1Cl (stereo not shown) (as salt: hydrochloride) [Compound 14a, N-(2-(2-Chloro-4-fluorophenyl)-2-(dimethylamino)ethyl)isoindoline-2-carboxamide hydrochloride]",melting point,,147 to 149 °C
"COc1ccc(C(CNC(=O)N2Cc3ccc(F)cc3C2)N(C)C)cc1 (stereo not shown) (as salt: hydrochloride) [Compound 16a, N-(2-(Dimethylamino)-2-(4-methoxyphenyl)ethyl)-5-fluoroisoindoline-2-carboxamide hydrochloride]",melting point,,145 to 149 °C (dec.)
"CN(C)C(CNC(=O)N1Cc2ccc(Cl)cc2C1)c1ccsc1 (stereo not shown) (as salt: hydrochloride) [Compound 4a, 5-Chloro-N-(2-(dimethylamino)-2-(thiophen-3-yl)ethyl)isoindoline-2-carboxamide hydrochloride]",melting point,,210 to 215 °C (dec.)
"CN(C)C(CNC(=O)N1Cc2ccccc2C1)c1ccsc1 (stereo not shown) (as salt: hydrochloride) [Compound 1a, N-(2-(Dimethylamino)-2-(thiophen-3-yl)ethyl)isoindoline-2-carboxamide hydrochloride]",melting point,,145 to 150 °C (dec.)
"CN(C)C(CNC(=O)N1Cc2cccc(F)c2C1)c1ccsc1 (stereo not shown) (as salt: hydrochloride) [Compound 3a, N-(2-(Dimethylamino)-2-(thiophen-3-yl)ethyl)-4-fluoroisoindoline-2-carboxamide hydrochloride]",melting point,,150 to 155 °C (dec.)
"COc1ccc(C(CNC(=O)N2Cc3ccc(F)cc3C2)N(C)C)cc1 (stereo not shown) [Compound 16a, N-(2-(Dimethylamino)-2-(4-methoxyphenyl)ethyl)-5-fluoroisoindoline-2-carboxamide hydrochloride]",Emax,"human OPRM1 (μ, MOR) [1]",12.2%
same,EC50,"human OPRM1 (μ, MOR) [1]",950 nM
same,Emax,"human OPRM1 (μ, MOR) [2]",91.9%
same,EC50,"human OPRM1 (μ, MOR) [2]",26 nM
same,Bias Factor (ΔRA of compound relative to ΔRA of DAMGO) × 10,"human OPRM1 (μ, MOR) [3]",−9.60
same,ΔRA of compound,"human OPRM1 (μ, MOR) [3]",−2.44
CN(C)C1(CNC(=O)N2Cc3ccc(F)cc3C2)CCCC1 [Compound 63],Emax,"human OPRM1 (μ, MOR) [1]",< 1%
same,EC50,"human OPRM1 (μ, MOR) [1]",> 100000 nM
same,Emax,"human OPRM1 (μ, MOR) [2]",87.9%
same,EC50,"human OPRM1 (μ, MOR) [2]",2510 nM
same,Bias Factor (ΔRA of compound relative to ΔRA of DAMGO) × 10,"human OPRM1 (μ, MOR) [3]",<−14.83
same,ΔRA of compound,"human OPRM1 (μ, MOR) [3]",<−2.96
CN(C)[C@@H](CCNC(=O)N1CC[C@@H](c2ccccc2)C1)c1ccsc1 [Compound 77],Emax,"human OPRM1 (μ, MOR) [1]",< 1%
same,EC50,"human OPRM1 (μ, MOR) [1]",> 100000 nM
same,Emax,"human OPRM1 (μ, MOR) [2]",33.2%
same,EC50,"human OPRM1 (μ, MOR) [2]",1100 nM
same,Bias Factor (ΔRA of compound relative to ΔRA of DAMGO) × 10,"human OPRM1 (μ, MOR) [3]",<−14.83
same,ΔRA of compound,"human OPRM1 (μ, MOR) [3]",<−2.96
CN(C)C1(CNC(=O)N2Cc3ccc(F)cc3C2)CCCCC1 [Compound 46],Emax,"human OPRM1 (μ, MOR) [1]",13.6%
same,EC50,"human OPRM1 (μ, MOR) [1]",10100 nM
same,Emax,"human OPRM1 (μ, MOR) [2]",109%
same,EC50,"human OPRM1 (μ, MOR) [2]",522 nM
same,Bias Factor (ΔRA of compound relative to ΔRA of DAMGO) × 10,"human OPRM1 (μ, MOR) [3]",−7.08
same,ΔRA of compound,"human OPRM1 (μ, MOR) [3]",−2.19
"COc1ccc(C(CNC(=O)N2Cc3ccccc3C2)N(C)C)cc1 (stereo not shown) [Compound 15a, N-(2-(Dimethylamino)-2-(4-methoxyphenyl)ethyl)isoindoline-2-carboxamide hydrochloride]",Emax,"human OPRM1 (μ, MOR) [1]",44.2%
same,EC50,"human OPRM1 (μ, MOR) [1]",1370 nM
same,Emax,"human OPRM1 (μ, MOR) [2]",108%
same,EC50,"human OPRM1 (μ, MOR) [2]",15 nM
same,Bias Factor (ΔRA of compound relative to ΔRA of DAMGO) × 10,"human OPRM1 (μ, MOR) [3]",−8.71
same,ΔRA of compound,"human OPRM1 (μ, MOR) [3]",−2.35
"CN(C)C(CNC(=O)N1Cc2ccc(F)cc2C1)c1ccsc1 (single isomer, unassigned) [2a-ent-(+), (+)—N-(2-(Dimethylamino)-2-(thiophen-3-yl)ethyl)-5-fluoroisoindoline-2-carboxamide hydrochloride]",EC50,"human OPRM1 (μ, MOR) [1]",1080 nM and 1010 nM
same,β-Arrestin Emax,"human OPRM1 (μ, MOR) [1]; hydrochloride","6.57, 13.7%"
same,EC50,"human OPRM1 (μ, MOR) [2]",18 nM and 58 nM
same,cAMP Emax,"human OPRM1 (μ, MOR) [2]; hydrochloride","99.5, 95.4%"
same,Bias Factor (ΔRA of compound relative to ΔRA of DAMGO) × 10,"human OPRM1 (μ, MOR) [3]; hydrochloride",−9.24
same,ΔRA of compound,"human OPRM1 (μ, MOR) [3]; hydrochloride",−2.40
"CN(C)C(CNC(=O)NC1CCCc2ccccc21)c1ccsc1 (stereo not shown) (as salt: hydrochloride) [Compound 11a, 1-(2-(Dimethylamino)-2-(thiophen-3-yl)ethyl)-3-(1,2,3,4-tetrahydronaphthalen-1-yl)urea hydrochloride]",melting point,,179 to 181 °C
CN(C)C(CNC(=O)N(C)[C@H]1CCCc2ccccc21)c1ccsc1 (stereo partly shown) [Compound 39],Emax,"human OPRM1 (μ, MOR) [1]",10.9%
same,EC50,"human OPRM1 (μ, MOR) [1]",644 nM
same,Emax,"human OPRM1 (μ, MOR) [2]",93.4%
same,EC50,"human OPRM1 (μ, MOR) [2]",118 nM
same,Bias Factor (ΔRA of compound relative to ΔRA of DAMGO) × 10,"human OPRM1 (μ, MOR) [3]",−1.90
same,ΔRA of compound,"human OPRM1 (μ, MOR) [3]",−1.67
"CN(C)C(CNC(=O)N1Cc2ccc(O)cc2C1)c1ccsc1 (stereo not shown) (as salt: hydrobromid) [Compound 22, N-(2-(Dimethylamino)-2-(thiophen-3-yl)ethyl)-5-hydroxyisoindoline-2-carboxamide hydrobromide]",melting point,,134 °C (dec.)
"CNC(CNC(=O)N1Cc2ccccc2C1)c1ccccc1 (single isomer, unassigned) [Compound 38-ent-B, (+)—N-(2-(Methylamino)-2-phenylethyl)isoindoline-2-carboxamide]",β-Arrestin Emax,"human OPRM1 (μ, MOR) [1]",5.9%
same,EC50,"human OPRM1 (μ, MOR) [1]",> 100000 nM
same,cAMP Emax,"human OPRM1 (μ, MOR) [2]",97.6%
same,EC50,"human OPRM1 (μ, MOR) [2]",840 nM
same,Bias Factor (ΔRA of compound relative to ΔRA of DAMGO) × 10,"human OPRM1 (μ, MOR) [3]",<−14.83
same,ΔRA of compound,"human OPRM1 (μ, MOR) [3]",<−2.96
